In the NIST ThermoML archive (doi:10.1021/je900550v):
Numbers after ± are expanded uncertainties.

Details: 101.33 kPa, Liquid; for speed of sound: Pulse-echo method; for mass density: Vibrating tube method

CCCC(=O)[O-].C[NH2+]CCO [N-methyl-2-hydroxyethylammonium butanoate]
Details | mass density [kg/m3] | speed of sound [m/s] | viscosity [mPa·s]
278.15 K | 1052.71 ± 2.2 | 1683.5 ± 2.2 | –
278.4 K | 1052.55 ± 2.2 | 1682.5 ± 2.2 | –
278.65 K | 1052.38 ± 2.2 | 1681.5 ± 2.2 | –
278.9 K | 1052.21 ± 2.2 | 1680.6 ± 2.2 | –
279.15 K | 1052.04 ± 2.2 | 1679.6 ± 2.2 | –
279.4 K | 1051.88 ± 2.2 | 1678.7 ± 2.2 | –
279.65 K | 1051.71 ± 2.2 | 1677.7 ± 2.2 | –
279.9 K | 1051.54 ± 2.2 | 1676.8 ± 2.2 | –
280.15 K | 1051.38 ± 2.2 | 1675.8 ± 2.2 | –
280.4 K | 1051.21 ± 2.2 | 1674.8 ± 2.2 | –
280.65 K | 1051.04 ± 2.2 | 1673.9 ± 2.2 | –
280.9 K | 1050.88 ± 2.2 | 1673 ± 2.2 | –
281.15 K | 1050.71 ± 2.2 | 1672 ± 2.2 | –
281.4 K | 1050.54 ± 2.2 | 1671.1 ± 2.2 | –
281.65 K | 1050.38 ± 2.2 | 1670.1 ± 2.2 | –
281.9 K | 1050.21 ± 2.2 | 1669.2 ± 2.2 | –
282.15 K | 1050.02 ± 2.2 | 1668.4 ± 2.2 | –
282.4 K | 1049.85 ± 2.2 | 1667.4 ± 2.2 | –
282.65 K | 1049.69 ± 2.2 | 1666.6 ± 2.2 | –
282.9 K | 1049.52 ± 2.2 | 1665.7 ± 2.2 | –
283.15 K | 1049.35 ± 2.2 | 1664.8 ± 2.2 | –
283.4 K | 1049.19 ± 2.2 | 1663.8 ± 2.2 | –
283.65 K | 1049.02 ± 2.2 | 1663 ± 2.1 | –
283.9 K | 1048.85 ± 2.2 | 1662.1 ± 2.1 | –
284.15 K | 1048.68 ± 2.2 | 1661.2 ± 2.1 | –
284.4 K | 1048.52 ± 2.2 | 1660.3 ± 2.1 | –
284.65 K | 1048.35 ± 2.2 | 1659.4 ± 2.1 | –
284.9 K | 1048.18 ± 2.2 | 1658.5 ± 2.1 | –
285.15 K | 1048.02 ± 2.2 | 1657.7 ± 2.1 | –
285.4 K | 1047.85 ± 2.2 | 1656.8 ± 2.1 | –
285.65 K | 1047.68 ± 2.2 | 1655.9 ± 2.1 | –
285.9 K | 1047.52 ± 2.2 | 1655 ± 2.1 | –
286.15 K | 1047.35 ± 2.2 | 1654.2 ± 2.1 | –
286.4 K | 1047.18 ± 2.2 | 1653.3 ± 2.1 | –
286.65 K | 1047.01 ± 2.2 | 1652.4 ± 2.1 | –
286.9 K | 1046.85 ± 2.2 | 1651.6 ± 2.1 | –
287.15 K | 1046.68 ± 2.2 | 1650.7 ± 2.1 | –
287.4 K | 1046.51 ± 2.2 | 1649.9 ± 2.1 | –
287.65 K | 1046.34 ± 2.2 | 1649 ± 2.1 | –
287.9 K | 1046.17 ± 2.2 | 1648.1 ± 2.1 | –
288.15 K | 1046.01 ± 2.2 | 1647.3 ± 2.1 | 609.15 ± 100
288.4 K | 1045.84 ± 2.2 | 1646.5 ± 2.1 | –
288.65 K | 1045.67 ± 2.2 | 1645.6 ± 2.1 | –
288.9 K | 1045.5 ± 2.2 | 1644.8 ± 2.1 | –
289.15 K | 1045.34 ± 2.2 | 1643.9 ± 2.1 | –
289.4 K | 1045.17 ± 2.2 | 1643 ± 2.1 | –
289.65 K | 1045 ± 2.2 | 1642.2 ± 2.1 | –
289.9 K | 1044.83 ± 2.2 | 1641.4 ± 2.1 | –
290.15 K | 1044.66 ± 2.2 | 1640.5 ± 2.1 | 516.28 ± 82
290.4 K | 1044.5 ± 2.2 | 1639.7 ± 2.1 | –
290.65 K | 1044.33 ± 2.2 | 1638.9 ± 2.1 | –
290.9 K | 1044.16 ± 2.2 | 1638 ± 2.1 | –
291.15 K | 1043.99 ± 2.2 | 1637.2 ± 2.1 | –
291.4 K | 1043.82 ± 2.2 | 1636.3 ± 2.1 | –
291.65 K | 1043.65 ± 2.2 | 1635.5 ± 2.1 | –
291.9 K | 1043.48 ± 2.2 | 1634.7 ± 2.1 | –
292.15 K | 1043.32 ± 2.2 | 1633.9 ± 2.1 | –
292.4 K | 1043.15 ± 2.2 | 1633.1 ± 2.1 | –
292.65 K | 1042.98 ± 2.2 | 1632.3 ± 2.1 | –
292.9 K | 1042.81 ± 2.2 | 1631.5 ± 2.1 | –
293.15 K | – | 1630.6 ± 2.1 | 433.8 ± 64
